According to patent US20060045881A1, “Anti-cancer vaccines” (Board of Regents, The University of Texas System, priority 2004, published 2006):
“And” between values parts separate entries of the source, which are not always exact repeats. Identical values can stand only once.

Experiments:
[1] = test system: PR1-CTL; assay: Annexin V apoptosis of PR1-CTL challenged with peptide-pulsed T2 cells; format: cell-based, human; settings: for apoptosis (Annexin V) of high avidity PR1-CTL: T2 pulsed with 20 μM peptide, 16 to 18 hr
Description: High PR1 concentration and proteinase 3-overexpressing CML cells induce apoptosis of high avidity PR1-specific CTL. […] All high avidity PR1-CTL exposed to high dose PR1 were dead after 36 to 48 hr of co-culture.

[2] = target: HLA-A2.1 (Homo sapiens, UniProt P04439, D140Y/D185E/D98H/E176V/E277Q/G131W/G231S/I119V/I121R/I166T/I218V/L300P/L318F/N151K/N90K/P208A/P217A/Q86G/Q94H/R138H/R169H/T345S); assay: HLA-A2.1 surface expression on peptide-coated T2 cells (indirect flow cytometry, BB7.2); format: binding; settings: compared with T2 without peptide / control influenza peptide
Protocol: Cell lines and peptide binding. T2 cells (American Type Culture Collection, Rockville, Md., USA) were maintained in culture in CM plus 10% FBS (Atlanta Biologicals Inc., Norcross, Ga., USA). PR1 peptide was incubated at increasing concentrations for 18 hr at 37° C. with 100 μg/ml β2m (Sigma-Aldrich) with 10^6 T2 cells in 1 ml CM. Cells were washed twice with CM, stained with BB7.2 Ab, washed again, and then stained with FITC-labeled secondary Ab (Becton Dickinson Immunocytometry Systems, San Jose, Calif., USA).
T2 cells are a human lymphocyte line that lacks TAP1 and TAP2 genes and therefore cannot present endogenous MHC class I restricted antigens. If the peptide effectively bound HLA-A2.1, it stabilized the complex with (β2-microglobulin and increased HLA-A2.1 surface expression, which could be measured using flow cytometry. An HLA-A2.1 specific monoclonal antibody (BB7.2, ATCC, Rockville, Md.) followed by a FITC-labeled secondary antibody (CalTag Laboratories, Burlingame, Calif.) was used to measure surface expression of HLA-A2.1.
T2 cells are a human lymphocyte line that lacks TAP1 and 2 genes and cannot therefore present endogenous MHC class I restricted antigens. If the peptide effectively bound HLA-A2.1, it stabilized the complex with β2-microglobulin and increased HLA-A2.1 surface expression, which could be measured using flow cytometry. An HLA-A2.1 specific monoclonal antibody (BB7.2, ATCC, Rockville, Md.) followed by a FITC-labeled secondary antibody (CALTAG) was used to measure surface expression of HLA-A2.1. […] The labeled heterotrimer complex was separated from unincorporated β2-microglobulin by high-performance liquid

[3] = test system: human myeloid leukemia cells; assay: Cytotoxicity of peptide-elicited CTL against HLA-A2.1-positive myeloid leukemia marrow cells; format: cell-based; settings: for lysis of HLA-A2.1-positive AML marrow cells by peptide-specific CTL: MY2: E:T 5:1
Description: (§1) PR1 specific CTL preferentially lyse human myeloid leukemia cells. It was next determined whether the PR1-specific CTL line was capable of lysing allogeneic human myeloid leukemia cells from HLA-A2.1 positive individuals. As controls, two cell lines expressing low levels of Pr3 were used: HLA-A2.1 transfected K562 cells and U937 cell line which lack HLA-A2.1 and would therefore be incapable of presenting peptides in an HLA-A2.1-restricted manner. Cryopreserved bone marrow cells from patients P1-P4, and marrow cells from a healthy normal volunteer (D2, a bone marrow donor for an allogeneic bone marrow transplant performed on patient P3) were thawed and used as targets for the PR1-specific CTL line.
(§2) It was next determined whether the MY2 and MY4-specific CTL lines were capable of lysing allogeneic human myeloid leukemia cells from HLA-A2.1 positive individuals. The targets were BM cells from pre-transplant HLA-A2.1-positive AML patients. As controls, BM cells from HLA-A2.1-negative AML patients, BM from HLA-A2.1-positive healthy donors and two cell lines expressing low levels of MPO were used: HLA-A2.1 transfected K562 cells and the U937 cell line which lacks HLA-A2.1 and would therefore be incapable of presenting peptides in an HLA-A2.1-restricted manner.

[4] = test system: marrow cells from a normal healthy donor; assay: Cytotoxicity of peptide-elicited CTL against normal donor marrow cells; format: cell-based, human
Description: as §1, §2

[5] = test system: HMy2.CIR-A2 cells transfected with Pr3; assay: PR1-specific CTL lysis of Pr3-transfected HMy2.CIR-A2 cells; format: cell-based, human; settings: clone 1.4; E:T 25:1
Protocol: Expression of proteinase 3 following transfection into and HMy2.CIR and HMy2.CIR-A2 cells. […] The parental HMy2.CIR cell line, which has lost expression of HLA-A and -B, and the HLA-A2.1-transfected HMy2.CIR cells (named HMy2.CIR-A2), were both transfected with Pr3 as described below.
Ten million HMy2.CIR (ATCC, Rockville, Md.), or 10 million HMy2.CIR-A2 cells were each washed in phosphate buffered saline (PBS) and re-suspended in 0.8 mL of ice-cold PBS and put into an electroporation cuvette with 20 μg of circular plasmid DNA. The mixture was exposed to an electric pulse of 320 volts at 960 microF and incubated on ice for 10 min. Cells were then added to 10 mL of pre-warmed CM. The following day, the CM was replaced. On day 2, cells were grown under selection conditions using 200 μg/mL Zeocin. Following one week of selection, the cells were subcloned by limiting dilution under Zeocin selection, and 6 clones were isolated.
HMy.2.CIR-A2 cells transfected with Pr3 are susceptible to lysis by PR1 specific CTL. It was next determined whether the transfected HMy2.CIR-A2 cells could be lysed by PR1 specific CTL. The PR1 specific CTL were elicited in the manner previously described, and after 22 days in culture were combined at a 25:1 E:T ratio with HMy2.CIR-A2 transfected either with the Pr3-containing vector pRTZ.2, or the empty vector containing the reporter gene, CAT. […]

[6] = test system: PBMC from HLA-A2.1+ healthy donors; assay: In vitro elicitation of PR1-CTL from PBMC with peptide-pulsed APC, PR1/HLA-A2 tetramer staining; format: cell-based, human
Protocol: Peptide-specific CTLs were expanded in culture using methods described previously (Molldrem et al., 1996; Molldrem et al., 1997). Briefly, PBMCs from healthy donors or CML patients were stimulated in vitro with PR1, pp65, or flu peptides. T2 cells were washed three times in serum-free CM and incubated with peptide at the indicated peptide concentration for 2 hr in CM.
Ab's and flow cytometry. For routine surface-antigen staining, 10^6 PBMCs were incubated at 4° C. with Ab. After washing, cells were incubated with FITC-labeled CD8 (Caltag Laboratories Inc., Burlingame, Calif., USA) for 30 min on ice. Surface expression of TCR was determined with FITC-labeled TCR-αβ (PharMingen, San Diego, Calif., USA), and annexin V using FITC-labeled Ab (Caltag Laboratories). Proteinase 3 expression was determined with primary mouse Ab (Accurate Chemical & Scientific Corp., Westbury, N.Y., USA). Mouse monoclonal anti-HLA-A2.1 Ab BB7.2 and anti-HLA-ABC w6/32 were derived from culture supernatants of a hybridoma cell lines (American Tissue Culture Collection). Cells were washed and fixed in 2% paraformaldehyde and analyzed on a FACScan (Becton Dickinson Immunocytometry Systems), and data were analyzed using CELLQuest (Becton Dickinson Immunocytometry Systems) software. The minimum concentration of tetramer necessary to show distinctly different avidities was determined in titration experiments. Each tetramer reagent was titered individually and used at the optimal concentration. The tetramer concentration showing the maximal separation of fluorescence intensity of CTL populations was generally 10-20 μg/ml. Propidium iodide (PI) (Becton Dickinson Immunocytometry Systems) staining (1 μg/ml) was performed to exclude dead cells, according to the manufacturer's instructions. A “dump” channel was used with tetramer staining to eliminate monocytes and B lymphocytes with nonspecific binding to the HLA-A2 heavy chain by staining with PerCP-labeled CD14 and CD19 (both Becton Dickinson Immunocytometry Systems).
PR1-specific CTL with high and low TCR avidity can be elicited from healthy donors. To determine whether high and low avidity PR1-CTL are present in healthy donors, a modified tetramer staining technique (Savage et al., 1999) using limiting tetramer concentration to visualize high and low fluorescence intensity tetramer+ cells, which correlates with high and low TCR avidity was utilized. Sufficient PR1-CTL was elicited by stimulating PBMC with increasing peptide concentrations for 28 days. PBMC from an HLA-A2.1+ healthy donor stimulated weekly for 28 days with 0.2 μM PR1 elicited 1.3% high intensity PR1/HLA-A2 tetramer-staining CTL with a median channel of fluorescence (MCF) of 293 (high avidity PR1-CTL), while stimulation with 20 μM PR1 produced 3.1% low avidity (MCF=93) PR1-specific CTL (FIG. 11A). […] Cultures stimulated with 2 μM PR1 produced fewer PR1-specific CTL with mixed TCR avidities, while stimulation with ≦0.02 μM PR1 induced <0.1% PR1-CTL. […] To further verify that tetramer staining intensity correlates with TCR avidity, the kinetics of tetramer staining decay was determined using previously described techniques (Savage et al., 1999).

[7] = test system: HLA-A2+ patients with CML, AML or MDS; assay: Phase I/II PR1 peptide vaccine study in myeloid leukemia patients; format: in vivo, human
Protocol: PR1 peptide is injected subcutaneously in incomplete Freund's adjuvant every 3 weeks for 3 injections to induce a PR1 specific host response against the myeloid leukemia. Both in Phase I and in Phase II, patients will also be evaluated for signs of immune reactivity. […] The amount of Proteinase 3 expression in the leukemia cells is studied by cytoplasmic flow cytometry analysis. Any clinical responses (defined by standard criteria as hematological and/or cytogenetic responses) will be correlated with the in vitro testing. Vaccination at 3 dose levels of peptide with a fixed amount of IFA will be conducted, and stopping criteria will be guided by established toxicity criteria.
HLA-A2^+ patients with CML (interferon-resistant or relapsed after BMT), AML (smoldering relapse or ≧2nd CR) or MDS (RAEB or RAEBt) with no detectable antibodies to proteinase 3 (no detectable cANCA) were eligible. Patients that relapsed after BMT or those ineligible for BMT were also eligible for study. […]
Secondarily, clinical responses were assessed by standard criteria with bone marrow biopsy, cytogenetic studies (standard chromosome banding) and molecular studies (PCR for bcr-abl or other known abnormalities such as t(15;17), inv16, etc.) 3 weeks after the last vaccination. Patients were seen and evaluated in clinic every 3 weeks during the study period. […]

[8] = test system: T2 cells; assay: 4-hr cytotoxicity of peptide-elicited CTL lines against peptide-loaded T2 cells
Protocol: CTL cytotoxicity assay. A semiautomated minicytotoxicity assay was used to determine specific lysis as described previously (Molldrem, 2000; Molldrem et al., 1996). Briefly, effector cells were prepared in doubling dilutions from 6×10^3 to 25×10^3 cells/well and were plated in 40 μl, 60-well Terasaki trays (Robbins Scientific, Sunnyvale, Calif., USA) with six replicates per dilution. Target cells (T2 cells, marrow-derived leukemic cells, or BM from a healthy donor) at a concentration of 2×10^6 cells/ml were stained with 10 μg/ml of Calcein-AM (Molecular Probes Inc.) for 60 min at 37° C. After washing three times in CM plus 10% AB, target cells were resuspended at 10^5 cells/ml, and 10^3 target cells in 10 μl medium were added to each well containing effector cells. Wells with target cells alone and medium alone were used for maximum (max) and minimum (min.) fluorescence emission, respectively. After 4 hr incubation at 37° C. in 5% CO2, 5 μl FluoroQuench (One Lambda Inc., Canoga Park, Calif., USA) was added to each well, and the trays were centrifuged for 1 min at 60 g before measurement of fluorescence using an automated CytoFluor II plate reader (PerSeptive Biosystems, Framingham, Mass., USA). The percentage of lysis was calculated as follows: % lysis={1−[(mean experimental mission−mean min.)/(mean max−mean min.)]}×100%.
Induction of Primary CTL responses to peptides. These peptides were next used to stimulate T cells specific for peptide-coated targets. PBMC from a normal healthy donor heterozygous for HL-A2.1 were stimulated with peptide-pulsed T2 cells. […] Briefly, T2 cells (which co-express the costimulatory molecule B7.1) were washed 3 times in serum-free RPMI culture media supplemented with penicillin/streptomycin and glutamine (CM) and incubated with peptide at 20 μg/mL for 2 hr in CM. The peptide loaded T2 cells were then irradiated with 7500 cGy, washed once, and suspended with freshly isolated PBMC at a 1:1 ratio in CM supplemented with 10% human serum (HS) (Sigma, St. Louis, Mo.). […]

[9] = test system: AML CFU-GM; assay: CFU-GM colony inhibition by MY4-pulsed CTL, AML marrow; format: cell-based, human; settings: patient P1 (M2-AML) and P2 (M4-AML), respectively; 13 day MY4-pulsed CTL
Description: (§3) In contrast there was no inhibition of CFUGM from normal marrow, D1 and D2, the corresponding HLA identical marrow donors for P1 and P2.

[10] = test system: CFU-GM from normal marrow; assay: CFU-GM colony inhibition by MY4-pulsed CTL, normal marrow; format: cell-based, human; settings: D1 and D2, HLA identical marrow donors
Description: as §3

[11] = T2 loaded with 1.0 μg/mL of same peptide, varying E:T

Substance: Influenza nucleoprotein: control influenza peptide, Influenza B nucleoprotein (aa 85-94), known high binding affinity to HLA-A2.1 (KLGEFYNQMM) [reference compound]
- apoptosis (Annexin V) of high avidity PR1-CTL [1]: no apoptosis was observed

Substance: KLNDILLIQL [PR7I]
- surface HLA-A2.1 expression on peptide-pulsed T2 cells (in words) [2]: strong peptide binding

Substance: VLQELNVTV [PR1]
- surface HLA-A2.1 expression on peptide-pulsed T2 cells (in words) [2]: increased surface HLA-A2.1 expression
- specific lysis of CML blast crisis marrow cells by PR1-specific CTL ([3]; CML-BC, E:T 25:1): 73%
- lysis of CML #3 BM cells by patient CTL elicited with 0.2 μM PR1 ([3]; CTL from patients CML #1 and CML #2, respectively, E:T 20:1): 24%±5% and 33%±6%
- specific lysis of CML marrow cells by PR1-specific CTL ([3]; P1, CML in chronic phase, E:T 6:1): 53%
- lysis of normal donor marrow cells by PR1-specific CTL ([4]; donor D2): < 20%
- specific lysis of Pr3-transfected cells by PR1-specific CTL [5]: 36%
- % of bulk culture CTL double-positive (CD8, PR1-tetramer) ([6]; 32 day-old PR1-stimulated CTL culture): 4.3%
- % PR1/HLA-A2 tetramer-staining CTL ([6]; PBMC stimulated weekly 28 days with 0.2 μM PR1 (high avidity)): 1.3%
- % of CTL line specific for PR1 (PR1-tetramer/CD8) ([6]; day 17 CTL line elicited against PR1): 2.4%
- % PR1/HLA-A2 tetramer-staining CTL ([6]; stimulated with 20 μM PR1 (low avidity)): 3.1%
- % PR1-CTL induced ([6]; stimulation with ≦0.02 μM PR1): < 0.1%
- apoptosis (Annexin V) of high avidity PR1-CTL [1]: underwent apoptosis
- apoptosis (Annexin V) of low avidity PR1-CTL ([1]; high or low concentrations of PR1): did not undergo apoptosis
- patients with complete remission ([7]; 9 patients (1 AML and 1 CML)): 2 patients
- patients in whom PR1-specific CTL immunity was elicited (tetramer staining) ([7]; 9 patients, 0.25, 0.5 or 1.0 mg every 3 weeks x3): 6 of 9
- specific lysis of peptide-loaded T2 cells by CTL line generated against the peptide [8, 11]: high specific lysis

Substance: RLFEQVMRI [MY4]
- lysis of HLA-A2.1-positive AML marrow cells by peptide-specific CTL [3]: killed AML cells
- specific lysis of HLA-A2+ normal BMC by peptide-specific CTL [4]: not normal cells
- inhibition of CFU-GM [9]: 63% and 34%
- inhibition of CFU-GM from normal marrow [10]: no inhibition

Substance: RLFPDFFTRV [PR2]
- surface HLA-A2.1 expression on peptide-pulsed T2 cells (in words) [2]: increased surface HLA-A2.1 expression
- specific lysis of peptide-loaded T2 cells by CTL line generated against the peptide [8, 11]: did not demonstrate any significant cytotoxicity

Substance: KLNDVLLIQL [PR7V]
- surface HLA-A2.1 expression on peptide-pulsed T2 cells (in words) [2]: strong peptide binding

Substance: KLLLALAGL [MY2]
- lysis of HLA-A2.1-positive AML marrow cells by peptide-specific CTL [3]: readily lysed
- lysis of HLA-A2.1-positive normal healthy donor marrow cells by MY2-specific CTL ([4]; E:T 20:1): 43%
- specific lysis of peptide-loaded T2 cells by CTL line generated against the peptide ([8]; T2 loaded with 2.0 μg/mL of same peptide): high specific lysis
